The text below walks through data of patent publication EP4650361A1, “ARGININE OPTICAL PROBE” (East China University of Science and Technology, priority 2023, dated 2024).

In experiment [1] the test system is Salmonella Typhimurium arginine-binding protein STM4351 variant D91A with cpYFP inserted at the 200/203 site (STM4351-200/203-D91A-cpYFP), SEQ ID NO: 9. Nature of the experiment: Fluorescence response of purified probe to arginine. As to conditions: signal with 100 mM arginine divided by signal without arginine, Figure 2. On the procedure: (§1) • 1. Transform the pET28a-based arginine probe plasmid into BL21(DE3), culture overnight in an inverted manner, pick a clone from the plate into a 250 ml conical flask, place in a 37 °C shaker, culture at 220 rpm until OD = 0.4-0.8, add IPTG (1 M) at 1/1000 (v/v), and induce expression at 18 °C for 24-36 h. • 2. After induction expression, collect the bacteria by centrifugation at 4000 rpm for 30 minutes, add 50 mM phosphate buffer to resuspend the bacterial pellet, and ultrasonically disrupt until the bacteria are clarified. Centrifuge at 9600 rpm at 4 °C for 20 minutes. • 3. The centrifuged supernatant is purified by a self-assembled nickel column affinity chromatography column to obtain the protein, and the protein after nickel column affinity chromatography is then passed through a self-assembled desalting column to obtain the protein dissolved in 20 mM MOPS buffer (pH 7.4) or phosphate buffer PBS. • 4. The purified arginine-binding protein mutant protein is identified by SDS-PAGE, and the probe is diluted with assay buffer (100 mM HEPES, 100 mM NaCl, pH 7.3) or phosphate buffer PBS to a final concentration of 5-10 µM protein solution. […] Take 100 µl of 5 µM protein solution, incubate at 37 °C for 5 min, add arginine respectively and mix to a final concentration of 100 mM, and measure the light absorption of the protein at 340 nm using a multifunctional fluorescence microplate reader. • 6. Take 100 µl of 1 µM fluorescent probe solution, incubate at 37 °C for 5 min, add arginine for titration, and measure the fluorescence intensity of the protein at 528 nm emission after 485 nm fluorescence excitation. The measurement of fluorescence excitation and emission of samples is completed using a multifunctional fluorescence microplate reader. • 7. Take 100 µl of 1 µM fluorescent probe solution, incubate at 37 °C for 5 min, add arginine, and measure the absorption spectrum and fluorescence spectrum of the probe protein. The measurement of absorption spectrum and fluorescence spectrum of samples is completed by a spectrophotometer and a fluorescence spectrophotometer. […]

In experiment [2] the test system is Salmonella Typhimurium arginine-binding protein STM4351 variant H140A with cpYFP inserted at the 200/203 site (STM4351-200/203-H140A-cpYFP), SEQ ID NO: 14. Described as above. As to conditions: signal with 100 mM arginine divided by signal without arginine, Figure 2. On the procedure:
as §1

In experiment [3] the test system is Salmonella Typhimurium arginine-binding protein STM4351 variant T32A with cpYFP inserted at the 200/203 site (STM4351-200/203-T32A-cpYFP), SEQ ID NO: 4. The experiment is described as above. As to conditions: signal with 100 mM arginine divided by signal without arginine, Figure 2. As to the method:
as §1

Experiment [4] relates to Salmonella Typhimurium arginine-binding protein STM4351 variant G89A with cpYFP inserted at the 200/203 site (STM4351-200/203-G89A-cpYFP), SEQ ID NO: 7. Nature of the experiment: Fluorescence response and titration of purified probe with arginine. On the procedure:
as §1, with “3.” for “3. The centrifuged supernatant is purified by a self-assembled nickel column affinity chromatography column to obtain the protein, and the protein after nickel column affinity chromatography is then passed through a self-assembled desalting column to obtain the protein dissolved in 20 mM MOPS buffer (pH 7.4) or phosphate buffer PBS. • 4. The purified arginine-binding protein mutant protein is identified by SDS-PAGE, and the probe is diluted with assay buffer (100 mM HEPES, 100 mM NaCl, pH 7.3) or phosphate buffer PBS to a final concentration of 5-10 µM protein solution.”, “protein.” for “protein. The measurement of absorption spectrum and fluorescence spectrum of samples is completed by a spectrophotometer and a fluorescence spectrophotometer.”

In experiment [5] the test system is Salmonella Typhimurium arginine-binding protein STM4351 variant T138A with cpYFP inserted at the 200/203 site (STM4351-200/203-T138A-cpYFP), SEQ ID NO: 12. Described as above. As to the method: as §1
Experiment [6] concerns Salmonella Typhimurium arginine-binding protein STM4351 variant E37A with cpYFP inserted at the 200/203 site (STM4351-200/203-E37A-cpYFP), SEQ ID NO: 5. Described as above. On the procedure: • 1. Transform the pET28a-based arginine probe plasmid into BL21(DE3), culture overnight in an inverted manner, pick a clone from the plate into a 250 ml conical flask, place in a 37 °C shaker, culture at 220 rpm until OD = 0.4-0.8, add IPTG (1 M) at 1/1000 (v/v), and induce expression at 18 °C for 24-36 h. • 2. After induction expression, collect the bacteria by centrifugation at 4000 rpm for 30 minutes, add 50 mM phosphate buffer to resuspend the bacterial pellet, and ultrasonically disrupt until the bacteria are clarified. Centrifuge at 9600 rpm at 4 °C for 20 minutes. • 3. The centrifuged supernatant is purified by a self-assembled nickel column affinity chromatography column to obtain the protein, and the protein after nickel column affinity chromatography is then passed through a self-assembled desalting column to obtain the protein dissolved in 20 mM MOPS buffer (pH 7.4) or phosphate buffer PBS. • 4. The purified arginine-binding protein mutant protein is identified by SDS-PAGE, and the probe is diluted with assay buffer (100 mM HEPES, 100 mM NaCl, pH 7.3) or phosphate buffer PBS to a final concentration of 5-10 µM protein solution. Prepare arginine into a stock solution with a final concentration of 1 M using assay buffer (20 mM MOPS, pH 7.4) or phosphate buffer PBS. • 5. Take 100 µl of 5 µM protein solution, incubate at 37 °C for 5 min, add arginine respectively and mix to a final concentration of 100 mM, and measure the light absorption of the protein at 340 nm using a multifunctional fluorescence microplate reader. • 6. Take 100 µl of 1 µM fluorescent probe solution, incubate at 37 °C for 5 min, add arginine for titration, and measure the fluorescence intensity of the protein at 528 nm emission after 485 nm fluorescence excitation. The measurement of fluorescence excitation and emission of samples is completed using a multifunctional fluorescence microplate reader. • 7. Take 100 µl of 1 µM fluorescent probe solution, incubate at 37 °C for 5 min, add arginine, and measure the absorption spectrum and fluorescence spectrum of the probe protein. The measurement of absorption spectrum and fluorescence spectrum of samples is completed by a spectrophotometer and a fluorescence spectrophotometer.
Screen the purified STM4351-cpYFP fusion protein for arginine response, and divide the detection signal of the fusion fluorescent protein containing 100 mM arginine by the detection signal of the fusion fluorescent protein without arginine. […]
Purify the mutant STM4351-200/203-E37A-cpYFP with high response multiple and good specificity. […] Determination of emission spectrum: fix the excitation wavelengths at 420 nm and 485 nm respectively, record the emission spectrum at […]-540 nm, and read once every 5 nm.

[7] abbreviates: 500 mM arginine compared with 0 mM arginine, Figure 4.

Each structure is given as a SMILES string.

Take `N=C(N)NCCC[C@H](N)C(=O)O` [arginine, Arginine]: the response to arginine entry is listed as “exceeding 3 times” in experiment [1]; “exceeding 3 times” in experiment [2]; “exceeding 3 times” in experiment [3]; “exceeding 3 times” in experiment [5] (signal with 100 mM arginine divided by signal without arginine, Figure 2); “about 15 times” in experiment [6] (arginine titration, Figure 3). In addition, the “response to arginine, response multiple” value is listed as “about 1.29” in experiment [4] (Figure 3) and roughly 3.14 in experiment [5] (arginine titration, Figure 3). Also, the Kd in experiment [4] (Figure 3, read-out: affinity for the substrate) is 23.6 µM; in experiment [5] (arginine titration, Figure 3, read-out: affinity for the substrate) it was 190 µM; in experiment [6] (arginine titration, Figure 3, saturation at 10 mM arginine, read-out: affinity for the substrate), 170 to 210 µM. Moreover, in experiment [6] (setting [7]), the “fluorescence intensity under 420 nm excitation” value was “basically unchanged”. Moreover, the “fluorescence intensity under 485 nm excitation” value in experiment [6] (setting [7]) was “about 15.0 times”.
